# Reference: patent publication US11844801B2, “Oral compositions of MK2 pathway inhibitor for treatment of immune conditions” (priority 2020, dated 2023)
# Where “and” joins values, the source holds several entries; their conditions need not be identical. Equal entries are not always repeated.
# Experiments:
# [1] = system: p-HSP27, TNF-α, IL-1β, IL-6 and IL-8; assay: Ex vivo LPS-stimulated p-HSP27 and cytokines in dosed healthy subjects, summary statements over several analytes; set-up: species or system human; details: SAD and MAD cohorts
# Experimental: Blood samples of 10 mL were collected for PD analysis. For the SAD cohorts, blood was collected before dosing and 1, 12, and 24 hours after dosing. For the MAD cohorts, on day 1 blood was collected before the morning dose and 4 and 12 hours after the morning dose (prior to the evening dose); on day 7, blood was collected before the morning dose and 4 and 12 hours after the morning dose. […] Additional details of the assays for analyzing p-HSP27 and cytokines are included in the Supplementary Information. Pharmacodynamics. PD data analysis was conducted using Microsoft Excel 2010 (Microsoft, Redmond, WA), Meso Scale Discovery Workbench® analysis software (Rockville, MD), and Phoenix WinNonlin, version 8.2.
# [2] = system: TNF-α; assay: Differentiated U937 cell LPS stimulated cytokine assay (TNF-α); format: cell-based; details: Homo sapiens, U-937, U937 cells, 100 ng/mL, 4 hr
# Experimental: U937 Cell differentiation and LPS stimulated cytokine assay: The U937 human pre-monocytic cell line (ATCC, CRL-1593.2) was grown in complete media: RPMI 1640 (Gibco, A10491) with penicillin-streptomycin (10 U/mL)-glutamine (2 mM) (Gibco, 10378016) and 10% FBS(Gibco, 26140-079). Cells were differentiated to a monocyte/macrophage phenotype with the addition of PMA (Sigma-Aldrich, P1585) (20 ng/mL, 24 hours), washed with DPBS (Gibco, 14190-136) and incubated in complete media for 24 hours at 37° C., 5% CO2. Following recovery, the cells were scraped, counted, re-plated in complete media in accordance with the experimental design and incubated for an additional 24 hours at 37° C., 5% CO2 prior to stimulation with LPS (Sigma-Aldrich, L2630) as described below. Differentiated U937 cells were pretreated for one hour in the presence of serially diluted compound or vehicle then stimulated with LPS at a final concentration of 100 ng/mL for four hours. Culture media was then collected for determination of cytokine levels using Meso Scale Technology.
# [3] = system: TNF-α; assay: Mouse neutrophil (mPMN) IL-1α stimulated TNF-α; format: cell-based
# Experimental: Biosynthesis of […] was quantified using MSD technology. […] Cells and compound were stimulated with mouse IL-1α to a final concentration of 10 ng/mL and incubated for 4 hours at 37° C. Supernatants were collected and TNF-α levels quantitated using MSD technology.
# [4] = system: IL-8; assay: Ex vivo LPS-stimulated IL-8 in blood of dosed healthy subjects, PK/PD inhibitory Emax model; set-up: species or system human
# Experimental: Blood samples of 10 mL were collected for PD analysis. For the SAD cohorts, blood was collected before dosing and 1, 12, and 24 hours after dosing. For the MAD cohorts, on day 1 blood was collected before the morning dose and 4 and 12 hours after the morning dose (prior to the evening dose); on day 7, blood was collected before the morning dose and 4 and 12 hours after the morning dose.
# Additional details of the assays for analyzing p-HSP27 and cytokines are included in the Supplementary Information.
# Pharmacodynamics. PD data analysis was conducted using Microsoft Excel 2010 (Microsoft, Redmond, WA), Meso Scale Discovery Workbench® analysis software (Rockville, MD), and Phoenix WinNonlin, version 8.2.
# Sample Preparation for Cytokine Analysis. For each sample, 180 μL aliquots were transferred into 7 wells of a round bottom 96 well tissue culture polystyrene low evaporation plate. […] No outer wells on the plates were used and all wells surrounding the samples contained 200 μL of phosphate buffered saline.
# DMSO was added to all wells in groups ‘A’ and ‘C’ to a final concentration of 0.1% ([…] of a 2% DMSO solution in DMEM containing 10% FBS and 1% penicillin/streptomycin/glutamine). […] Samples were mixed gently for 30 seconds on a plate shaker using pin tools, then placed in an incubator at 37° C./5% CO2 for 1 hour.
# Samples in groups ‘A’ and ‘B’ were stimulated with lipopolysaccharide at a final concentration of 100 ng/mL. A stock solution of lipopolysaccharide at 1 mg/mL in DMEM containing 10% FBS and 1% penicillin/streptomycin was diluted to […] in DMEM containing 10% FBS and 1% penicillin/streptomycin, and […] of this working solution was added per well of blood for all samples in groups ‘A’ and ‘B’. […] of DMEM containing 10% FBS only was added per well of blood for all samples in group ‘C’ (unstimulated samples). Samples were mixed gently for 30 seconds on a plate shaker using pin tools, then placed in an incubator at 37° C./5% CO2 for 5 hours.
# Following the incubation, the plates were removed from the incubator and sealed with adhesive clear plate seals. The plates were then centrifuged for 10 minutes at 1800×g at room temperature. […] of plasma was removed from each well and transferred to a 96-well polypropylene round bottom master plate, which was then sealed and frozen at −80° C. until all samples from the respective cohort were generated. Once all samples from a given cohort were generated, the samples were analyzed for cytokine (TNF-α, IL-1b, IL-6, and IL-8) production using Meso Scale Discovery Technology.
# Analysis of Cytokine Levels Using Meso Scale Discovery Technology. All lipopolysaccharide plasma samples were analyzed for cytokine production with a V-Plex Human Proinflammatory Panel II (4-Plex) Kit from Meso Scale Discovery (Rockville, MD). The master plates containing the plasma samples were thawed on ice, and a daughter plate consisting of a 25-fold dilution of each plasma sample (3 μL of plasma plus 72 μL of Meso Scale Discovery Diluent 2) was generated for each master plate. The diluted plasma samples from the daughter plates were used in the cytokine analysis. The Meso Scale Discovery 4-plex plates were washed 3 times with 150 μL/well of wash buffer (1×KPL phosphate buffered saline with Tween 20 from SeraCare [Milford, MA]). Prepared calibrators and the samples from the daughter plates were added to the washed Meso Scale Discovery 4-plex plates at 50 μL/well. The 4-plex plates were sealed and shaken overnight at 4° C.
# After the overnight incubation, the samples were removed by decanting. The 4-plex plates were then washed 3 times with 150 μL/well of wash buffer. […]
smiles,measurement,setting,value
"Cc1cnc(-c2ccnc(C(C)(C)O)n2)cc1-n1c(C)cc(OCc2ncc(F)cc2F)c(Cl)c1=O (single isomer, unassigned) [ATI-450, 3-chloro-4-((3,5-difluoropyridin-2-yl)methoxy)-2′-(2-(2-hydroxypropan-2-yl)pyrimidin-4-yl)-5′,6-dimethyl-2H-[1,4′-bipyridin]-2-one]","modulation of p-HSP27 and inhibition of production of TNF-α, IL-1β, IL-6, and IL-8",[1],concentration-dependent and dose-dependent modulation
same,IC50,[2],1.55 ± 0.35 nM
same,IC50,"[3]; Mus musculus, Neutrophil, mPMN, IL-1α, 10 ng/mL, 4 hr",5 nM
same,IL-1α mediated TNF-α signaling in neutrophils,"[3]; mouse IL-1α 10 ng/mL, 4 hours",dose dependently inhibits
same,Cmax (Multiple of IC80),"[4]; 50 mg BID, day 7",5.6x
same,Ctrough (Multiple of IC80),"[4]; 50 mg BID, day 7",2.3x
same,IC80,"[4]; Homo sapiens, calculated from IC50, combined SAD and MAD data, read-out: IC80, plasma concentration at 80% of maximal inhibition",0.0388 µg/mL
same,IC50,"[4]; Homo sapiens, inhibitory Emax model, combined SAD and MAD data, read-out: IC50, plasma concentration at half maximal inhibition",0.0097 µg/mL
same,"IC80, plasma concentration at 80% of maximal inhibition","[4]; calculated from IC50, combined SAD and MAD data",0.0388 µg/mL
same,"Imax, maximum percent inhibition",[4]; inhibitory Emax model,57% and 57.1%
